Test results taken from patent US20060002866A1, “Method for protecting the skin from aging” (priority 2002, published 2006).

Test system: lumican mRNA in MRC5 fibroblasts
Assay: Stimulation of the lumican mRNA content in MRC5 fibroblasts (Northern Blot)
Type: cell-based, human
Settings: for Mean value [mRNA lumican/36B4 mRNA]: MRC5 fibroblasts, lumican mRNA against housekeeping gene 36B4 mRNA
Experimental: Northern Blot technique for determining the RNA messengers in cells of low molecular weight proteoglycans, such as lumican and syndecan.
The stimulation of the lumican mRNA content in MRC5 fibroblasts incubated with increasing concentrations of the growth factor IGF-1 (Insulin-like Growth Factor 1, Sigma-Aldrich) was investigated. The content of mRNA of the proteoglycan lumican in cultures of human fibroblasts—MRC5 fibroblasts—was determined by the Northern Blot method.

Question: Which “Mean value [mRNA lumican/36B4 mRNA]” value (IGF-1 0.1 ng/ml) does the source give for “IGF-1: growth factor IGF-1 (Insulin-like Growth Factor 1, Sigma-Aldrich)” here?
Answer: 1.38

Question: What about the “Mean value [mRNA lumican/36B4 mRNA]” value (IGF-1 1 ng/ml) of the same substance?
Answer: 2

Question: And the “Mean value [mRNA lumican/36B4 mRNA]” value (IGF-1 10 ng/ml)?
Answer: 3.2

Question: What about the “Effect on mRNA content for lumican” value (cultures of MRC5 fibroblasts) of the same substance?
Answer: increases the mRNA content for lumican
